The series can be described thus: gradient 5% acetonitrile 3 min, to 50% in 2 min, to 85% in 15 min, held 3 min, 100 µL/min. The note with it: column: Zorbax Extend-C18 2.1 x 50 mm; eluents: water / acetonitrile, 0.1% formic acid. In outline: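 Data were gathered over 3 months by HPLC coupled to a quadrupole time-of-flight mass spectrometer, operated in positive and negative ionization mode. Mixtures of ~100 pure standards ran on a Zorbax Extend-C18 column (2.1 × 50 mm, 1.8 μm) at 100 μL/min, with water and acetonitrile each containing 0.1% formic acid and dead and dwell volumes of 40 μL and 900 μL. Retention time was read from adduct peaks picked by computer and checked manually.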
`O=C(NCCNS(=O)(=O)CCOc1ccc(F)cc1)c1ccc(NC(=O)C2CC2)cc1` displayed an RP-LC retention time of 710 s.
As for `Cc1cc(C)c(S(=O)(=O)N2CCCC(C(=O)NC3CC3)C2)c(C)c1` (stereo not drawn), the RP-LC retention time stood at 842 s.
In the case of `O=C(Nc1nc(-c2cccc3ccccc23)cs1)c1ccncc1`, the RP-LC retention time was 904 s.
Take `Cc1noc(-c2ccc(-n3cnc(C(=O)NC(C)c4ccc(F)cc4)c3)nc2)n1` (stereo not drawn): the RP-LC retention time amounted to 862 s.
The result for `O=C(CCc1c(-c2ccccc2)nc2ccccn12)Nc1ccccc1Cl` reads 668 s; that for `CC1(C)CC(=O)c2cn(-c3ccc(F)cc3)c(=O)c(C(=O)NC3CCCC3)c2C1`, 957 s; that for `CN(Cc1ccccc1)C(=O)CSc1nnc(-c2ccc(Cl)cc2)o1`, 1030 s.
The result for `CCC(=O)Nc1ccc(-n2cnc(C(=O)N3CCN(c4ccc(OC)cc4)CC3)c2)nc1` reads 653 s.
The compound `CCOC(=O)c1sc2nc(C)cc(C)c2c1NC(=O)CCS(=O)(=O)c1ccccc1` had an RP-LC retention time of 759 s.
With `O=C(c1cc2c(=O)n(Cc3ccccc3)ccc2s1)N1CCCCCC1`, the RP-LC retention time was 876 s.
The result for `CCCCNC(=O)C1CCN(C(=O)c2ncn3c2COC(c2ccc(F)cc2)C3)CC1` (stereo not drawn) reads 722 s; that for `O=C(C1CCN(c2cnc3nccnc3c2)CC1)N1CCC2(CC1)OCCO2`, 620 s.
The compound `COC(=O)c1ccc(C(=O)NCCN2CCN(c3ccc(F)cc3)CC2)cc1` had an RP-LC retention time of 576 s.
The compound `CC(C)(C)c1ccc(O)c(NC(=O)c2cn(-c3ccc(S(=O)(=O)N4CCCC4)cc3)cn2)c1` registered an RP-LC retention time of 1020 s.
The result for `O=C(C1CCCO1)N1CCc2ccc(NS(=O)(=O)c3ccc(F)c(Cl)c3)cc21` (stereo not drawn) reads 813 s.
In turn, `Cc1ccc(CN2CC(=O)N3CCc4c([nH]c5ccccc45)C3(C)C2=O)cc1` (stereo not drawn) gave an RP-LC retention time of 1020 s.
Take `O=C(Nc1ccc(-n2cnnn2)cc1)C1CN(c2nc3ccccc3s2)C1`: the RP-LC retention time came to 659 s.
The result for `Cc1ccc(N2CCN(C(=O)C3CCCN(c4cnc5nccnc5c4)C3)CC2)cc1` (stereo not drawn) reads 754 s; that for `CNC(=O)N1CCc2ccc(C(=O)NC(C)(C)C)cc21`, 661 s; that for `CCn1nnc2c(SCc3cc(OC)cc(OC)c3)ncnc21`, 917 s.
`CCc1ccccc1NC(=O)Cn1cnc2nc(N3CCCC(C(=O)NC(C)C)C3)sc2c1=O` (stereo not drawn) registered an RP-LC retention time of 759 s.
As for `CCOC(=O)c1cc(S(=O)(=O)N2CCCC2C(=O)N2CCCCCC2)cn1C` (stereo not drawn), the RP-LC retention time amounted to 822 s.
The compound `Cc1ccc(CNC(=O)N2c3ccccc3CC2c2nc(C3CC3)no2)cc1` (stereo not drawn) had an RP-LC retention time of 972 s.
The result for `CCOc1ccc2ncc(S(=O)(=O)c3ccc(Cl)cc3)c(N3CCN(CC)CC3)c2c1` reads 685 s.
The result for `Cc1noc(C)c1S(=O)(=O)N1CCc2nn(Cc3ccccc3)c(=O)n2CC1` reads 776 s; that for `CC(C)CNC(=O)C1CCCN(c2nccn3nc(-c4ccccc4Cl)cc23)C1` (stereo not drawn), 872 s; that for `O=C(C1=CN(c2cccc(Cl)c2)c2ccccc2S1(=O)=O)N1CCOCC1`, 782 s.
The result for `O=C(CN1C(=O)C2CCCCN2c2ccc(C(=O)N3CCCC3)cc21)NC1CCCC1` (stereo not drawn) reads 732 s; that for `Cc1nc(N(C)C(=O)Cc2ccc(-c3ccccn3)cc2)sc1S(N)(=O)=O`, 699 s.
With `Cc1ccc(NC(=O)N2CCCC(C)(C(=O)NCc3ccccc3)C2)c(C)c1` (stereo not drawn), the RP-LC retention time is 924 s.
`CCCNC(=O)C1CCN(c2nc3ccc(-c4cccs4)nc3s2)CC1` returned an RP-LC retention time of 872 s.
The result for `Cc1cccc(-c2noc(C3CCCN3S(=O)(=O)c3ccc4c(c3)CCCC4)n2)c1` (stereo not drawn) reads 1340 s.
The result for `O=C(NCc1cccnc1)NC1CC(=O)N(c2ccc(Cl)cc2)C1` (stereo not drawn) reads 546 s.
Take `CCn1cc(-c2nc(C)c(C(=O)NCc3cccs3)s2)c2cccnc21`: the RP-LC retention time worked out at 926 s.
`Cc1ccc(Cn2cc(CCC(=O)N3CCC(C(N)=O)CC3)c3ccccc32)cc1` yielded an RP-LC retention time of 813 s.
The result for `O=C(CCc1ccccc1)Nc1cnn(-c2ncncc2N2CCOCC2)c1` reads 649 s; that for `CCn1nnc(NCc2ccc(-c3cc(Cl)cc(Cl)c3)o2)n1`, 1140 s.
The result for `O=C(Cn1nc2c3cc(-c4ccc(Cl)cc4)nn3ccn2c1=O)N1CCCCC1` reads 924 s; that for `CCOc1ccc(S(=O)(=O)N2CCC(c3noc(-c4ccc(F)cc4)n3)CC2)cc1`, 1120 s; that for `c1cc(N2CCSCC2)ncc1-c1noc(CN2CCN(C3CCCCC3)CC2)n1`, 655 s.
The result for `O=C(C1CCN(c2nc3ccc(-c4cccs4)nc3s2)CC1)N1CCCC1` reads 893 s; that for `CC1(C)Cc2cccc(OCC(=O)NCc3n[nH]c(=O)c4ccccc34)c2O1`, 661 s.
`CCOC(=O)C1CCC(CNC(=O)Nc2ccc(-c3nc(-c4ccc(C)cc4C)co3)cc2)CC1` (stereo not drawn) registered an RP-LC retention time of 1240 s.
The result for `COc1ccc(-c2noc(-c3ccc(NCCCN4CCCC4)nn3)n2)cc1` reads 642 s; that for `Cc1ccc2nc(C(=O)NCc3ccc(Cl)cc3)cn2c1`, 718 s; that for `NC(=O)C1CCN(C(=O)c2ccc(Cn3c(=O)c4cccn4c4cccnc43)cc2)CC1`, 655 s.
The result for `O=C(Nc1ccccc1)[C@@H]1OCC(=O)N(C2CC2)[C@H]1c1ccccc1` reads 775 s; that for `CCCNC(=O)C1CCCN(c2ccc(SCC(=O)Nc3ccc(Cl)cc3)nn2)C1` (stereo not drawn), 712 s; that for `O=C(NCCCN1CCCCC1)C1CCCN(c2cnc3nccnc3c2)C1` (stereo not drawn), 560 s.
The result for `O=S(=O)(NC1CCCC1)c1ccc(-c2nnc(C3CCC3)o2)o1` reads 900 s.
`O=S(=O)(c1ccc(Cl)cc1)N1CCC(c2noc(-c3ccccc3)n2)CC1` gave an RP-LC retention time of 1170 s.
In the case of `CNC(=O)c1cc(-c2ccc(OC)cc2)n[nH]1`, the RP-LC retention time was determined as 583 s.
For `Cc1ccsc1C(=O)N1CCC2(CC1)CC(OCC1CC1)CCO2` (stereo not drawn), the RP-LC retention time worked out at 851 s.
The result for `O=C(NCc1cc(-c2ccc3c(c2)OCO3)on1)c1cc(=O)c2ccccc2o1` reads 758 s.
The result for `COc1ccc(C(F)(F)F)cc1NC(=O)C1CCCN(c2ccc(-n3ccnc3)nn2)C1` (stereo not drawn) reads 609 s.
In the case of `CCc1cc(=O)n(CC(=O)Nc2cc(F)cc(F)c2)c(N2CCOCC2)n1`, the RP-LC retention time turned out to be 802 s.
The result for `Cn1c(C2CCN(C(=O)NCCc3ccccc3)CC2)cc(=O)n2nccc12` reads 619 s.
The result for `CC1CCCN(S(=O)(=O)c2ccc(-n3cnc(C(=O)N4CCCC4)c3)nc2)C1` (stereo not drawn) reads 817 s.
Turning to `COc1ccc([N+](=O)[O-])cc1NC(=O)Cc1cccc2ccccc12`, the RP-LC retention time stood at 967 s.
The result for `COc1ccc(-c2cc3c(=O)n(CC(=O)N4CCCC4)ncn3n2)cc1` reads 746 s; that for `O=S(=O)(Nc1ccncc1)c1cccc(C(F)(F)F)c1`, 591 s; that for `O=C(Nc1c(F)cccc1F)N1CCc2[nH]cnc2C1c1ccccc1` (stereo not drawn), 608 s.
The result for `Cc1cc(Nc2ccccc2)nc(N2CCN(C(=O)Nc3ccc(F)cc3)CC2)n1` reads 696 s; that for `CCOc1ccc(S(=O)(=O)N2CCC(C(=O)NCCCOC)CC2)cc1C`, 789 s; that for `CCN1CCCn2nc(C3CCN(C(=O)COc4cccc(Cl)c4)CC3)cc2C1=O`, 751 s.
With `Cc1ccc(-c2nc(CN3CCCC(C(=O)NC4CCCCNC4=O)C3)no2)cc1` (stereo not drawn), the RP-LC retention time worked out at 638 s.
The compound `Cc1cccc(-c2noc(Cc3nnc(-c4ccccc4)o3)n2)c1` returned an RP-LC retention time of 1030 s.
Take `COc1ccc(C2C(C(=O)NCCN(C)C)c3cc(OC)c(OC)cc3C(=O)N2C)cc1` (stereo not drawn): the RP-LC retention time amounted to 597 s.
The compound `Cc1csc(C(=O)N2CC3CC2C(=O)O3)c1` (stereo not drawn) displayed an RP-LC retention time of 624 s.
The result for `COc1ccc(NC(=O)C2CC(=O)N(CCc3c[nH]c4ccc(F)cc34)C2)cc1` (stereo not drawn) reads 758 s; that for `COC(=O)[C@H]1[C@H]2C[C@@H]3c4[nH]c5cc(OC)ccc5c4CCN3C[C@H]2C[C@@H](OC(=O)CC(C)=O)[C@@H]1OC`, 731 s; that for `Cn1nnc(-c2ccc(-c3ccc(N4C[C@@H](CO)OC4=O)cc3F)cn2)n1`, 735 s.
The result for `Cc1nc(-c2csc(S(=O)(=O)N3CCCC(C(=O)Nc4ccc(C)c(F)c4)C3)c2)no1` (stereo not drawn) reads 1030 s; that for `COc1ccc(OC)c(NC(=O)CSc2ccc(N3CCCC(C(=O)NC4CC4)C3)nn2)c1` (stereo not drawn), 672 s.
The result for `Cc1ccc(C(=O)Nc2ccc(-c3nc(Cn4cccn4)c(C)o3)cc2)s1` reads 890 s; that for `CCN(Cc1ccccc1)S(=O)(=O)c1cc(-c2nnc(C3CCC3)o2)co1`, 913 s.
In turn, `Cc1nc(-c2noc(-c3ccncc3)n2)cn1CC(=O)N1CCN(c2ccc(F)cc2)CC1` had an RP-LC retention time of 689 s.
Compound `CCN(CC)C(=O)CC(c1cc(OC)c(OC)c(OC)c1)N1Cc2ccccc2C1=O` (stereo not drawn) came in with an RP-LC retention time of 769 s.

For the origin of these results see the METLIN SMRT retention time set (Domingo-Almenara et al. 2019).
